According to patent publication US5871946A, “Method for determining activity of enzymes in metabolically active whole cells” (priority 1995, dated 1999):

How the values were obtained:
[1] = test system: MONOCYTES; experiment: Disease to normal ratio of enzyme activity, monocytes (Table 5); format: cell-based, human
Source text: (§1) A normal in house adult donor pool was drawn, recording sex and determining that no known disease state was present at the time of sample draw. Criteria for rejecting samples included patients under medication, patients with infection or inflammation of any type, colds and flu as well as any known medical illness such as cancer, heart ailment and high blood pressure. A donor list of 75 patients has been developed and a mean and 2 sd range established. A subgroup of "super normals" was developed from this list by examining the 75 patients to determine which group falls closest to the mean for all enzymes in all cell types tested. These patients were used as the "wellness index" or best group of "normalcy" patients. If a study required the use of children or newborns then this same format was used to develop a data base for these age groups.

[2] = test system: LYMPHOCYTES; experiment: Disease to normal ratio of enzyme activity, lymphocytes (Table 5); format: cell-based, human
Source text: as §1

[3] = test system: amino peptidase; experiment: Aminopeptidase activity in acute lympholytic Ficoll prepared lymphocytes; format: cell-based; conditions: FIG. 4B
Source text: The cell's ability to fight off an invader lies within its genetics and therefore cell type. The "readiness" however of any genetically capable group of cells to defend is different. A measure of this "readiness" is manifest in the available proteolytic enzymes contained within vacuoles or on the surface of the cell. The assay compound hydrolysis rate increases with increased mass of enzymes giving a picture of immune competence both in number of cells and activity level. […] Images were generated using Universal Imaging.

[4] = Effect of sodium chloride on dipeptide reagent; format: cell-based; conditions: 7 mM, pH range 6.5 to 8.7
Source text: Inhibitors and poisons (or toxins) are components that can be added to reduce the activity of non-targeted enzymes that provide competing reactions for the leaving group. Inhibitors are usually very selective for a particular enzyme. For example, EDTA only works with enzymes requiring Ca^+2, Mg^+2 and some other metals. […] Preferred inhibitors for particular enzymes are included in Table 1.

[5] = Modulators of sensitivity of rhodamine 110 substrates; format: cell-based; conditions: 1 mM
Source text: Modulators are components used to […] the sensitivity of the enzyme for the leaving group. The modulators speed up or slow down the activity of an enzyme by changing the active site. […] Preferred modulators for particular enzymes are included in Table 1.

With `CC(C)C[C@H](N)C(=O)Nc1ccc2c(c1)Oc1cc(NC(=O)[C@@H](N)CC(C)C)ccc1C21OC(=O)c2ccccc21` [LEU, (Leu)2 Rho 110] the “Ratio of disease to normal” value ([1]; Dermatomyositis, monocytes) was 1.35, the “Ratio of disease to normal” value ([1]; Inflam. Bowel Dis., monocytes section) was 1.13 and the “Ratio of disease to normal” value ([1]; JRA, monocytes) was 1.44. The “Ratio of disease to normal” value ([1]; Lupus, monocytes) was 44.44, the “Ratio of disease to normal” value ([2]; Dermatomyositis) was 1.36 and the “Ratio of disease to normal” value ([2]; Inflam. Bowel Dis.) was 1.34. The “Ratio of disease to normal” value ([2]; Lupus) was 1.93, the “Ratio of disease to normal” value ([2]; Rheumatic Fever) was 1.05 and the enzymatic activity [3] was “lost their enzymatic activity”.
In the case of `[Cl-].[Na+]` [sodium chloride], the “inhibitory effect on dipeptide reagent” value [4] is reported as “slightly inhibitory effect”.
With `O[C@H](CS)[C@@H](O)CS` [dithioerythritol (DTE), dithioerythritol] the “effect on sensitivity of the leaving group for the enzyme” value ([5]; Ala-Gly and Leu-Gly substrates) was “does not change the sensitivity” and the “effect on sensitivity of substituted rhodamine 110 substrates” value ([5]; Pro, Gly, Gln-Ser, Val-Lys-Val-Lys, Ala-Ala, Ala-Ala-Ala-Ala substrates) was “decreases the sensitivity”.
